Values joined by “and” are separate entries in the source; they are usually repeats but may differ in a detail not shown here. Equal values may be shown once. Toxic doses and inconclusive results are not listed. Rule as the data show it: active = T/C of 150% or more; inactive = T/C below 125%.
Test system: L1210 leukemia ip in BDF1 mice, survival T/C
Assay: NCI In Vivo Anticancer Drug Screen. Data for tumor model L1210 Leukemia (intraperitoneal) in B6D2F1 (BDF1) mice
Settings: endpoint: mean survival time, higher = longer survival
In short: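 Ratio derived from survival: compound-dosed mice over vehicle-dosed mice, all bearing a transplantable tumor.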

[1] = dose: 100.0 mg/kg/injection, schedule: Q01DX001 (ip), vehicle: saline
[2] = dose: 200.0 mg/kg/injection, schedule: Q01DX001 (ip), vehicle: saline
[3] = dose: 400.0 mg/kg/injection, schedule: Q01DX001 (ip), vehicle: saline
[4] = dose: 100.0 mg/kg/injection, schedule: Q04DX003 (ip), vehicle: saline with Tween-80
[5] = dose: 200.0 mg/kg/injection, schedule: Q04DX003 (ip), vehicle: saline with Tween-80
[6] = dose: 50.0 mg/kg/injection, schedule: Q01DX009 (ip), vehicle: Klucel (hydroxypropylcellulose) (HPC)
[7] = dose: 100.0 mg/kg/injection, schedule: Q01DX001 (ip), vehicle: carboxymethylcellulose (CMC)
[8] = dose: 100.0 mg/kg/injection, schedule: Q01DX009 (ip), vehicle: Klucel (hydroxypropylcellulose) (HPC)
[9] = dose: 100.0 mg/kg/injection, schedule: Q04DX003 (ip), vehicle: Klucel (hydroxypropylcellulose) (HPC)
[10] = dose: 200.0 mg/kg/injection, schedule: Q01DX001 (ip), vehicle: carboxymethylcellulose (CMC)
[11] = dose: 200.0 mg/kg/injection, schedule: Q04DX003 (ip), vehicle: Klucel (hydroxypropylcellulose) (HPC)
[12] = dose: 400.0 mg/kg/injection, schedule: Q01DX001 (ip), vehicle: carboxymethylcellulose (CMC)
[13] = dose: 400.0 mg/kg/injection, schedule: Q01DX009 (ip), vehicle: Klucel (hydroxypropylcellulose) (HPC)
[14] = dose: 200.0 mg/kg/injection, schedule: Q01DX009 (ip), vehicle: Klucel (hydroxypropylcellulose) (HPC)
[15] = dose: 100.0 mg/kg/injection, schedule: Q04DX002 (ip), vehicle: Klucel (hydroxypropylcellulose) (HPC)
[16] = dose: 75.0 mg/kg/injection, schedule: Q01DX001 (ip), vehicle: saline
[17] = dose: 100.0 mg/kg/injection, schedule: Q04DX002 (ip), vehicle: saline
[18] = dose: 200.0 mg/kg/injection, schedule: Q04DX002 (ip), vehicle: saline

Measured: T/C

CC(C)CNc1ccc(S(=O)(=O)c2ccc(NCC(C)C)c([N+](=O)[O-])c2)cc1[N+](=O)[O-]
inactive: dose: 3.12 mg/kg/injection, schedule: Q01DX009 (ip), vehicle: DMSO 92 % of control | dose: 6.25 mg/kg/injection, schedule: Q01DX009 (ip), vehicle: DMSO 89 % of control | dose: 12.5 mg/kg/injection, schedule: Q01DX009 (ip), vehicle: DMSO 105 % of control | dose: 25.0 mg/kg/injection, schedule: Q01DX005 (ip), vehicle: DMSO 92 % of control | dose: 25.0 mg/kg/injection, schedule: Q01DX009 (ip), vehicle: DMSO 88 % of control | dose: 50.0 mg/kg/injection, schedule: Q01DX005 (ip), vehicle: DMSO 92 % of control | dose: 100.0 mg/kg/injection, schedule: Q01DX005 (ip), vehicle: DMSO 90 % of control | dose: 100.0 mg/kg/injection, schedule: Q04DX002 (ip), vehicle: DMSO 96 % of control | dose: 200.0 mg/kg/injection, schedule: Q04DX002 (ip), vehicle: DMSO 111 % of control | dose: 400.0 mg/kg/injection, schedule: Q04DX002 (ip), vehicle: DMSO 107 % of control

CCCCCCCCCCNC(=O)C[n+]1cccc(C(=O)Nc2ccccc2)c1
inactive: dose: 3.12 mg/kg/injection, schedule: Q01DX009 (ip), vehicle: saline with Tween-80 100 % of control | dose: 6.25 mg/kg/injection, schedule: Q01DX009 (ip), vehicle: saline with Tween-80 105 % of control | dose: 12.5 mg/kg/injection, schedule: Q01DX009 (ip), vehicle: saline with Tween-80 88 % of control | dose: 12.5 mg/kg/injection, schedule: Q04DX003 (ip), vehicle: saline 103 % of control | dose: 25.0 mg/kg/injection, schedule: Q04DX003 (ip), vehicle: saline 88 % of control

c1ccc(-c2nc3nncn3nc2-c2ccccc2)cc1
inactive: [1] 94 % of control | [2] 99 % of control | [3] 98 % of control

OCc1ccc[n+](CCc2c[nH]c3ccccc23)c1
inactive: [4] 97 % of control | [5] 103 % of control

O=[N+]([O-])c1ccc(N/N=C/c2ccc(N(CCO)CCO)cc2)c([N+](=O)[O-])c1
inactive: dose: 25.0 mg/kg/injection, schedule: Q01DX001 (ip), vehicle: saline with Tween-80 88 % of control | dose: 50.0 mg/kg/injection, schedule: Q01DX001 (ip), vehicle: saline with Tween-80 90 % of control | dose: 100.0 mg/kg/injection, schedule: Q01DX001 (ip), vehicle: saline with Tween-80 98 % of control

CC(C)(CO)C(O)C(=O)NCCC(=O)c1ccccc1 (configuration not stated)
inactive: [1] 103 % of control | [2] 92 % of control | [3] 103 % of control

CCOC(=O)c1[nH]cnc1/N=N/N(C)CCO
active: dose: 175.0 mg/kg/injection, schedule: Q01DX009 (ip), vehicle: saline 152 % of control | [13] 150 % of control and 154 % of control | dose: 600.0 mg/kg/injection, schedule: Q01DX009 (ip), vehicle: saline 154 % of control
inactive: [6] 122 % of control | dose: 90.0 mg/kg/injection, schedule: Q01DX009 (ip), vehicle: Klucel (hydroxypropylcellulose) (HPC) 116 % of control | [7] 115 % of control | [8] 117 % of control | [9] 109 % of control and 115 % of control | [10] 102 % of control | [11] 108 % of control and 121 % of control | [12] 107 % of control | dose: 400.0 mg/kg/injection, schedule: Q04DX003 (ip), vehicle: Klucel (hydroxypropylcellulose) (HPC) 124 % of control

Cc1cnc(C(N)=O)c(=O)[nH]1
inactive: dose: 100.0 mg/kg/injection, schedule: Q01DX009 (ip), vehicle: saline 96 % of control | dose: 100.0 mg/kg/injection, schedule: Q04DX003 (ip), vehicle: saline 100 % of control | dose: 200.0 mg/kg/injection, schedule: Q01DX009 (ip), vehicle: saline 96 % of control | dose: 200.0 mg/kg/injection, schedule: Q04DX003 (ip), vehicle: saline 100 % of control | dose: 400.0 mg/kg/injection, schedule: Q01DX009 (ip), vehicle: saline 98 % of control | dose: 400.0 mg/kg/injection, schedule: Q04DX003 (ip), vehicle: saline 97 % of control

CCOC(=O)C/C(C)=N/N=C(\CCOC)COC
inactive: [7] 87 % of control | [10] 103 % of control | [12] 103 % of control

Cc1cc(=O)n(-c2ccccc2)c2ccccc12
inactive: [1] 103 % of control | [2] 97 % of control | [3] 100 % of control

O=C(Nc1ccc(I)cc1)Nc1cc(C(F)(F)F)ccc1Cl
inactive: [8] 100 % of control | [14] 93 % of control | [13] 88 % of control

CC(CCc1ccccc1)C12CCC(CC1O)C2 (configuration not stated)
inactive: [15] 96 % of control | dose: 200.0 mg/kg/injection, schedule: Q04DX002 (ip), vehicle: Klucel (hydroxypropylcellulose) (HPC) 110 % of control | dose: 400.0 mg/kg/injection, schedule: Q04DX002 (ip), vehicle: Klucel (hydroxypropylcellulose) (HPC) 96 % of control

S=C([S-])N1CCOCC1.S=C([S-])N1CCOCC1.[Zn]
inactive: dose: 4.68 mg/kg/injection, schedule: Q01DX009 (ip), vehicle: saline 90 % of control | dose: 9.37 mg/kg/injection, schedule: Q01DX009 (ip), vehicle: saline 86 % of control | dose: 18.75 mg/kg/injection, schedule: Q01DX009 (ip), vehicle: saline 91 % of control | dose: 18.75 mg/kg/injection, schedule: Q04DX003 (ip), vehicle: saline 100 % of control | dose: 37.5 mg/kg/injection, schedule: Q04DX003 (ip), vehicle: saline 100 % of control | [16] 90 % of control

CSCCC(NC(=O)COc1ccc(Cl)cc1Cl)C(=O)O (configuration not stated)
inactive: [8] 100 % of control | [14] 101 % of control | [13] 108 % of control

O=[N+]([O-])c1ccc(/C=N\N=C\c2ccc([N+](=O)[O-])cc2)cc1
inactive: dose: 100.0 mg/kg/injection, schedule: Q01DX001 (ip), vehicle: other 104 % of control | dose: 200.0 mg/kg/injection, schedule: Q01DX001 (ip), vehicle: other 104 % of control | dose: 400.0 mg/kg/injection, schedule: Q01DX001 (ip), vehicle: other 104 % of control

CCC(C)N=C(N)C(N)=NC(C)CC (configuration not stated)
inactive: [17] 103 % of control | [18] 103 % of control

N#CCCC[P+](c1ccccc1)(c1ccccc1)c1ccccc1
inactive: dose: 75.0 mg/kg/injection, schedule: Q01DX001 (ip), vehicle: other 97 % of control | [15] 98 % of control

CCC(C)(C(=O)O)C(=O)O
inactive: [1] 103 % of control

OC1CC=CC=CC1
inactive: [16] 94 % of control | dose: 150.0 mg/kg/injection, schedule: Q01DX001 (ip), vehicle: saline 97 % of control

ClCCN(CCCl)c1ccc(-c2csc(COc3ccccc3)n2)cc1
inactive: [7] 102 % of control | [10] 96 % of control | [12] 91 % of control

Brc1csc2ncccc12
inactive: [6] 102 % of control | [8] 101 % of control | [9] 97 % of control | [14] 96 % of control | [11] 100 % of control

CCOC(=O)C(Cc1ccc(O)c([N+](=O)[O-])c1)N1C(=O)c2ccccc2C1=O (configuration not stated)
inactive: [1] 107 % of control | [2] 92 % of control | [3] 95 % of control

COc1ccc(CC(C)N)cc1OC (configuration not stated)
inactive: [17] 105 % of control | [18] 102 % of control

C/C(CC(C)(C)c1ccccc1)=N/NC(N)=O
inactive: [8] 104 % of control | [14] 98 % of control

O=C(Nc1cccc([N+](=O)[O-])c1)c1ccc(Cl)c(Cl)c1
inactive: dose: 25.0 mg/kg/injection, schedule: Q04DX003 (ip), vehicle: saline with Tween-80 115 % of control | dose: 50.0 mg/kg/injection, schedule: Q04DX003 (ip), vehicle: saline with Tween-80 96 % of control | [4] 99 % of control | [5] 86 % of control | dose: 300.0 mg/kg/injection, schedule: Q04DX003 (ip), vehicle: saline with Tween-80 86 % of control

O=C1CCCCCC1c1ccccc1 (configuration not stated)
inactive: [4] 98 % of control | [5] 96 % of control | dose: 400.0 mg/kg/injection, schedule: Q04DX003 (ip), vehicle: saline with Tween-80 106 % of control

CC(=O)Nc1ccc(OC(C)(C)C)cc1
inactive: dose: 50.0 mg/kg/injection, schedule: Q01DX001 (ip), vehicle: saline 101 % of control | [1] 106 % of control | [2] 97 % of control | [3] 95 % of control

Source: PubChem BioAssay AID248 (DTP/NCI, 2004)
